This is an account of results in US8865723B2, “Selective PDE4 B inhibition and improvement in cognition in subjects with brain injury” (Tetra Discovery Partners LLC, priority 2012, dated 2014).

Data set [1] has as its system traumatic brain injury (TBI) rats. Description: Water maze test (acquisition and probe trial) 12 weeks after fluid-percussion brain injury. Format: in vivo, Sprague Dawley rats. From the text: (§1) Sprague Dawley rats were subjected to moderate parasagittal fluid-percussion brain injury using methods described in Atkins et al, J Neurosci Res 90, 1861-71 (2012). Adult male Sprague Dawley rats (280-300 g; Charles Rivers Laboratories) were anesthetized with 3% isoflurane, 70% N2O, and 30% O2 and received a 4.8-mm craniotomy (3.8 mm posterior to bregma, 2.5 mm lateral to the midline) over the right parietal cortex. Twenty-four hours after the craniotomy, the animals were re-anesthetized (3% isoflurane, 70% N2O, and 30% O2); immobilized with pancuronium bromide (1.0 mg/kg); and mechanically ventilated with 1% isoflurane, 70% N2O, and 30% O2. When physiological measurements had stabilized, the animals received a fluid-percussion pulse (1.8-2.2 atmospheres, 14-16 msec) or sham injury with the fluid-percussion brain injury device. Blood gases, blood pH, and mean arterial blood pressure were monitored for 30 min prior to the fluid percussion brain injury or sham surgery and for up to 1 hr post-injury to maintain normal levels. Injured and sham injured rats were coded such that the investigator assessing the behavior of the animals would not know their injury status.
2-(4-(2-(5-chlorothiophen-2-yl)-5-ethyl-6-methylpyrimidin-4-yl)amino)phenyl)acetic acid (Compound 33) was dissolved in 100% dimethylsulfoxide (DMSO) at 1 mg/ml and then diluted 20 fold into 0.9% sodium chloride (saline) with 2 molar equivalents of sodium hydroxide (0.258 mM) to yield a final concentration of Compound 33 at 0.05 mg/ml in 5% DMSO saline. Rats treated with vehicle received 5% DMSO in saline. Four treatment groups were studied; TBI rats treated with vehicle, TBI rats treated with Compound 33, sham rats treated with vehicle, and sham rats treated with Compound 33. Compound 33 and vehicle were delivered by intraperitoneal injection. Compound 33 was administered at a dose of 0.3 mg/kg. […] At 12 weeks after surgery, the rats were administered either vehicle or Compound 33 only 30 minutes prior to training on the water maze test.
Twelve weeks after surgery, rats were tested for cognitive ability using the water maze test. Animals received vehicle or Compound 33 (0.3 mg/kg, i.p.) 30 min prior to water maze training. The circular pool (122 cm diameter, 60 cm deep) was filled with opaque water at 24° C. and surrounded by distinct, invariant extramaze cues. An escape platform, 9.3 cm in diameter, was submerged 1.5 cm below the water surface. Animals received four 60 s acquisition trials per day for 4 days with inter-trial intervals of 4 min. […] Path length to reach the platform, escape latency, and swim speed were analyzed with EthoVision software (Noldus Information Technology). […]

Data set [2] has the same test system. Description: Working memory version of the water maze task, week 14 post-surgery. As to conditions: 0.3 mg/kg 30 min prior to testing. Format: in vivo, Sprague Dawley rats.
Excerpt: as §1, with “status. […]” for “status.”
To assess working memory in TBI animals, a working memory version of the water maze task was used on week 14 post-surgery. […] Escape latency differences between the first location trial and subsequent match trial were measured.

Data set [3] relates to subjects suffering a brain injury. The conditions noted are these: administered 1 hour after the injury; cited from earlier work.
Data set [4] has as its system normal uninjured brains. As to conditions: cited from earlier work.
The subject of data set [5] is brain injury. As to conditions: within 30 minutes of a brain injury; cited from earlier work.
The mark [6] stands for this setting: 0.3 mg/kg i.p. 30 min prior to training, 4 training days, 12 weeks after surgery.

On to `CCc1c(C)nc(-c2ccc(Cl)s2)nc1Nc1ccc(CC(=O)O)cc1` [Compound 33], for which, in data set [1] (setting [6]), the “escape latency to reach the hidden platform during acquisition” value is reported as “progressive decrease” and the “path length to reach the hidden platform during acquisition” value was “progressive decrease”. In data set [1] (0.3 mg/kg i.p., 4th day of acquisition, versus sham animals), the “indices of learning (escape latency and path length) on the 4th day of acquisition” value is reported as “comparable to sham animals treated with vehicle or Compound 33”. In addition, the “time in the target quadrant, probe trial (retention)” value in data set [1] (24 h after last acquisition trial, platform removed, no drug on probe day) was “spent less time in the target quadrant as compared to Compound 33-treated TBI animals”. Besides, in data set [2], the “working memory (escape latency difference between location and match trial)” value is “this deficit was rescued by Compound 33 treatment”.
Turning to `CC(=O)CCCCn1c(=O)c2c(ncn2C)n(C)c1=O` [pentoxyfilline], in data set [3], the TNF-α result is “reduced TNF-α” and the “outcomes after brain injury” value is listed as “improved outcomes”.
As to `COc1ccc(C2CNC(=O)C2)cc1OC1CCCC1` (stereo not drawn) [rolipram], the learning and memory entry in data set [4] is “improve learning and memory”. Moreover, the “effect on brain injury” value in data set [5] was “exacerbates the brain injury”.
